Data from ChEMBL document CHEMBL3745612, “Synthesis and biological evaluation of thiophene and benzo[b]thiophene analogs of combretastatin A-4 and isocombretastatin A-4: A comparison between the linkage positions of the 3,4,5-trimethoxystyrene unit” (Bioorg Med Chem Lett, 2016).

How the values were obtained:
[1] = molecular target: Tubulin; experiment: Inhibition of Tubulin polymerization in human HeLa cells assessed as decrease in dynamic tyrosinated microtubules after 2 hrs by microplate reader analysis; type: cell-based
[2] = system: MES-SA; experiment: Antiproliferative activity against human MES-SA cells after 72 hrs by resazurin assay; type: functional, cell-based
[3] = Antiproliferative activity against human IC8 cells after 72 hrs by MTT assay; type: functional, cell-based; conditions: IC8, 72 h
[4] = Inhibition of sheep brain tubulin polymerization incubated at 37 degC for 10 mins and 0 degC for 5 mins by turbidimetry; set-up: species or system Ovis aries

Row | Structure (SMILES) | EC50 [1] [µM] | IC50 [2] [µM] | IC50 [3] [µM] | EC50 [4] [µM]
1 | C=C(c1cc(OC)c(OC)c(OC)c1)c1cccs1 | > 10 |  |  | 
2 | C=C(c1cc(OC)c(OC)c(OC)c1)c1cc2ccccc2o1 | > 10 |  |  | 
3 | COc1cc(C(=O)c2csc3ccccc23)cc(OC)c1OC | > 10 |  |  | 
4 | C=C(c1cc(OC)c(OC)c(OC)c1)c1csc2ccccc12 | 3.9 |  |  | 
5 | COc1csc(/C=C\c2cc(OC)c(OC)c(OC)c2)c1 | 0.081 | 0.025 | 0.027 | 
6 | COc1cc(/C=C\c2cccs2)cc(OC)c1OC | > 10 |  |  | 
7 | COc1ccc(/C=C\c2cc(OC)c(OC)c(OC)c2)cc1O [COMBRETASTATIN A4] |  | 0.003 | 0.004 | 
8 | COc1cc(C(=O)c2cc3ccccc3s2)cc(OC)c1OC | > 10 |  |  | 
9 | COc1cc(/C=C/c2cc3ccccc3s2)cc(OC)c1OC | 3.18 |  |  | 
10 | C=C(c1cc(OC)c(OC)c(OC)c1)c1cc2ccccc2s1 | 0.321 | 0.095 | 0.101 | 
11 | C=C(c1ccsc1)c1cc(OC)c(OC)c(OC)c1 | > 10 |  |  | 
12 | COc1cc(/C=C\c2cc3ccccc3s2)cc(OC)c1OC | 2.6 | 0.013 | 0.017 | 0.08
13 | COc1cc(/C=C\c2ccsc2)cc(OC)c1OC | > 10 |  |  | 
14 | COc1cc2c(c(OC)c1OC)-c1ccc(OC)c(=O)cc1[C@@H](NC(C)=O)CC2 [COLCHICINE] |  | 0.015 | 0.015 | 
15 | COc1ccc(/C=C\c2cc(OC)c(OC)c(OC)c2)s1 | 1.56 | 0.053 | 0.076 | 
16 | COc1cc(/C=C\c2csc3ccccc23)cc(OC)c1OC | 2.43 | 0.191 | 0.288 | 
